Consider 16 molecules from patent publication US10501780B2, “Compositions for in situ nucleic acid analysis” (APPLIED BIOSYSTEMS, LLC, priority 2007, dated 2019).

The target of one experiment is proteinase K (PK) (Parengyodontium album, UniProt P06873). It counts as biochemical. The conditions noted are these: PK 600 ug/ml, increasing inhibitor, 3 min; RNaseALERT fluorescence at 520 nm. The procedure:
PK (600 ug/ml) was mixed with increasing amounts of test inhibitor and allowed to react for 3 min at room temperature. RNase A was added and the mixture was incubated for 10 min. The RNase A was mixed with RNaseALERT™ substrate (AMBION®, Catalog No. AM1964) and incubated for 10 min. The fluorescence of the RNaseALERT™ substrate was measured at 520 nm.

Experiment [1] relates to DNase I. The note with it: 1 mM EDTA in Buffer A; 0.2 U DNase I. The procedure:
The 590 nm fluorescence intensity with 544 nm excitation was measured with time.

The test system of experiment [2] is DNase I. Here is the method: The ability of EGTA to inhibit DNase I activity and the limiting amount of EGTA that could be used in RT-PCR was determined. EGTA (88 mM; final conc. of 8 mM) was added to the stop solution for DNase I inactivation. The pH of the stop solution was 8.0 for AAPV (SEQ ID NO:1) inactivation of proteinase K. Tris-base with HCl as needed for pH adjustment (11 mM; final conc of 1 mM) was used for buffering the solution.

Experiment [3] in a line: Compatibility of protease inhibitors with two-step RT-PCR. It counts as biochemical. An excerpt: The samples were reverse transcribed using a Reverse Transcriptase Kit (Applied Biosystems Catalog No. 4368813) and the resulting cDNA was subjected to real time PCR with the TAQMAN® Universal PCR Master Mix (Applied Biosystems Catalog No. 4304437).
Experiment [4] can be described thus: Compatibility of protease inhibitors with 1-step RT-PCR. The note with it: one-step reaction.
Another experiment has as its system HeLa cells. The experiment can be described thus: Lysis efficacy of surfactants by propidium iodide staining. It counts as cell-based, H. sapiens. The conditions noted are these: PI staining, 10^5 HeLa cells; for effectiveness at lysing cells: concentrations up to 3%. The procedure: Lysis efficacies of seven surfactants were tested by PI staining (DNA fluorochrome propidium iodide stain for viability, 1 mg/ml) of 10^5 HeLa cells treated with 0.01% to 5% surfactant. The buffer was 10 mM Tris pH 7.5, 2.5 mM MgCl2, 0.5 mM CaCl2.

Another experiment has as its target proteinase K (Parengyodontium album, UniProt P06873). The experiment can be described thus: AAPV concentration for proteinase K inhibition in lysis solution (RNase A, Bioanalyzer protein chip). The conditions noted are these: PK 100 ug/ml. Format: biochemical. The procedure:
For one-step RT-PCR, AAPV (SEQ ID NO:1) is effective. To determine the concentration of AAPV (SEQ ID NO:1) for inhibition of proteinase K in the lysis solution, 50 uL lysis solution was mixed with 5 uL of stop solution with varying amounts of AAPV (SEQ ID NO:1) (11 mM Tris, 44 mM EGTA, […] AAPV (SEQ ID NO:1)) and incubated for 10 min. RNase A (15 ug) was added to each sample and the samples were held for 10 min at room temperature. The reaction mixture was heated for 30 min at 95° C. and analyzed using a Protein 50 Bioanalyzer chip (2100 Bioanalyzer, Agilent, Santa Clara, Calif.). The Bioanalyzer protein gel data are provided by FIG. 7 in which the lower marker is at about 3.5 kDa; the next higher prominent bands are system peaks at about 4.0-4.5 kDa; intact RNase A is at about 20 kDa; and proteinase K is at about 35 kDa. Lanes are labeled as follows: (L) Ladder, (1) RNase Only, (2) PK Only, (3)-(8) AAPV (SEQ ID NO:1) at 1 mM (3), 0.75 mM (4), 0.5 mM (5), 0.25 mM (6), 0.125 mM (7), and 0 mM (8).

The target in experiment [5] is T1, AMPLITAQ GOLD® DNA polymerase (Thermus aquaticus, UniProt P19821).
T1 construct: purchased Applied Biosystems 4304437
T1 sequence (P19821 whole entry): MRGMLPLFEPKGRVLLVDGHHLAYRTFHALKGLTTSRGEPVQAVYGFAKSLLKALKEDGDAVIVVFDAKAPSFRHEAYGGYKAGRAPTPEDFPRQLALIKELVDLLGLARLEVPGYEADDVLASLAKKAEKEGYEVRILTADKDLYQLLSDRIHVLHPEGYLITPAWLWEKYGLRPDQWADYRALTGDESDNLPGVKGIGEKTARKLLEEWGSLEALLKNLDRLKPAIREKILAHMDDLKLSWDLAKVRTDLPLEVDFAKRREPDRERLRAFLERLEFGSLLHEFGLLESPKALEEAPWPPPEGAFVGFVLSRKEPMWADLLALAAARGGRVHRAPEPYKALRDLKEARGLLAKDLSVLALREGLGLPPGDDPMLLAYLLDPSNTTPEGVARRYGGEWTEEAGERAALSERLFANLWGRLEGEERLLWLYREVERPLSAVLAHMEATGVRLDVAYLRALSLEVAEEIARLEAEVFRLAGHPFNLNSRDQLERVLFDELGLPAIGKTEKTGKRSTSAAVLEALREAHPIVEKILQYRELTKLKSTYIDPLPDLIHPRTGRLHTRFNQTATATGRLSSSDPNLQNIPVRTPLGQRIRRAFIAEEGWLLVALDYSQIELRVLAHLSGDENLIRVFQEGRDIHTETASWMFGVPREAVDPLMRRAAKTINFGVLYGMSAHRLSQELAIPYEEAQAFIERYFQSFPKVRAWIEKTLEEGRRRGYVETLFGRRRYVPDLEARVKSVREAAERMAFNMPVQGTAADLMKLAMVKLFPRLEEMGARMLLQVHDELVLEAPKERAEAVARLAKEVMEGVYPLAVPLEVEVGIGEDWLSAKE
Put plainly: Effect of surfactants on qPCR (TAQMAN Universal PCR Master Mix, PPIA assay). It counts as biochemical. The conditions noted are these: even at 1% (0.1% final in PCR). The procedure:
The effects of surfactants on PCR reactions were then studied. qPCR (20 uL) reactions with 4 ng Human Universal reference liver cDNA (Catalog No. 780622; […]®, La Jolla, Calif.) were performed by adding 2 uL of surfactant resuspended in 10 mM Tris pH 7.5 at concentrations of 0.0%, 0.01%, 0.03%, 0.1%, 0.3%, and 1%. qPCR reactions were carried out using the TAQMAN® Universal PCR Master Mix (Applied Biosystems Catalog No. 4304437), and qRT-PCR reactions were carried out using the TAQMAN® One-Step RT-PCR Master Mix (Applied Biosystems Catalog No. 4309169). TAQMAN® gene expression assays were used to determine expressions levels of genes PPIA (peptidylprolyl isomerase A (cyclophilin A)) and B2M (β-2-microglobulin).
ROX™ background fluorescence was not affected.

Setting [6] is: concentrations up to 2 mM in the stopped mixture (up to 400 uM in an RT reaction).

*: point of attachment. MeOSuc = COC(=O)CCC(=O)*; CH2Cl = ClC*

proteinase K (PK), sequence (P06873 106-384): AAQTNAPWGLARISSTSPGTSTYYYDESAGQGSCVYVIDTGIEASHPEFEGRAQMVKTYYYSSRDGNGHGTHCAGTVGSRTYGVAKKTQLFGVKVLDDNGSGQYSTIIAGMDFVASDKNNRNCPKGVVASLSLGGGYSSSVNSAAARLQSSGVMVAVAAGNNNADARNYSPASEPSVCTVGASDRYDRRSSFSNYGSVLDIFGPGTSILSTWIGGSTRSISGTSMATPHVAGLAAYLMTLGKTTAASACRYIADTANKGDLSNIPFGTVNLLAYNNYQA
proteinase K, sequence (P06873 106-384): as above

As to `NCCc1ccc(S(=O)(=O)F)cc1` [AEBSF, 4-(2-aminoethyl) benzenesulfonyl fluoride], at proteinase K (PK), the “inhibition of PK at room temperature” value is “did not show inhibition”.

Turning to `O=C(O)CN(CCN(CC(=O)O)CC(=O)O)CC(=O)O` [EDTA, ethylenediamine tetraacetic acid], the “effect on DNase I activity (DNaseALERT substrate fluorescence)” value in the experiment with DNase I [1] is “inhibitory effect”. Regarding `O=C(O)CN(CCOCCOCCN(CC(=O)O)CC(=O)O)CC(=O)O` [EGTA, ethylene glycol tetraacetic acid], the “concentration inhibiting DNase I” value in the experiment on DNase I [2] is recorded as ≥ 4 mM. For the molecule `O=S(=O)(F)Cc1ccccc1` [PMSF, phenylmethylsulfonylfluoride], in experiment [3] (setting [6]), the “RT-PCR inhibition (two-step)” value is on record as “Minimal RT-PCR inhibition”. Besides, in experiment [4], the “compatibility with 1-step RT-PCR” value is “showed RT-PCR inhibition”. With `N=C(N)c1ccccc1` [benzamidine], on proteinase K (PK), the “inhibition of PK at room temperature” value is reported as “did not show inhibition”. As to `CC(=O)N[C@@H](CC(C)C)C(=O)N[C@@H](CC(C)C)C(=O)N[C@H](C=O)CCCNC(=N)N` [leupeptin, Ac-Leu-Leu-Arg-CHO], the “inhibition of PK at room temperature” value on proteinase K (PK) is reported as “capable of inhibiting PK”. “N-tosyl-L-lysine-chloromethyl ketone [TLCK]”: the “inhibition of PK at room temperature” value on proteinase K (PK) is recorded as “did not show inhibition”. On to TWEEN™ 20, for which the “effectiveness at lysing cells” value in the experiment with HeLa cells is on record as “not effective”. TWEEN™ 40: in the experiment on HeLa cells, the “effectiveness at lysing cells” value is “not effective”. Regarding TWEEN™ 80, in the experiment on HeLa cells, the “effectiveness at lysing cells” value is “not effective”. As to aprotinin, the “inhibition of PK at room temperature” value on proteinase K (PK) is “capable of inhibiting PK”. The “RT-PCR inhibition (two-step)” value in experiment [3] (all concentrations tested) is on record as “inhibitory”. In experiment [4], the “compatibility with 1-step RT-PCR” value was “showed RT-PCR inhibition”.

With “methoxysuccinyl-Ala-Ala-Pro-Ala-chloromethyl ketone (MeOSuc-AAPA-CH2Cl)”, the “inhibition of PK at room temperature” value with proteinase K (PK) is reported as “did not show inhibition”. Take “methoxysuccinyl-Ala-Ala-Pro-Val-chloromethyl ketone (MeOSuc-AAPV-CH2Cl)”: in the experiment with proteinase K (PK), the “inhibition of PK at room temperature” value is on record as “capable of inhibiting PK”. Further, the “RT-PCR inhibition (two-step)” value in experiment [3] (setting [6]) is recorded as “Minimal RT-PCR inhibition”. In addition, the “lowest concentration inhibiting PK” value with proteinase K was ≥ 0.25 mM; in the experiment with proteinase K (listed as Methoxysuccinyl-AAPV-chloromethyl ketone) it was ≥ 0.75 mM. For the same molecule, in experiment [4], the “compatibility with 1-step RT-PCR” value is “compatible”.

Take “octylphenol ethoxylate having an average of 7.5 ethoxylate groups [TRITON X-114™]”: the “effect on qPCR (Ct)” value in experiment [5] is reported as “no effect”. As to “octylphenol ethoxylate having an average of 9.5 ethoxylate groups [TRITON X-100™]”, the “concentrations effective for lysis” value in the experiment on HeLa cells (0.01% to 5% surfactant tested, 1% TRITON X-100 as full lysis control) is on record as ≥ 0.05%.

B1: N-acetyl-Eglin C: Catalog No. E7888, Sigma-Aldrich; inhibitor of chymotrypsin, subtilisin, leukocyte elastase and cathepsin G (protein)
chain: Ac-TEFGSELKSFPEVVGKTVDQAREYFTLHYPQYDVYFLPEGSPVTLDLRYNRVRVFYNPGTNVVNHVPHVG
On to B1, for which, in the experiment with proteinase K (PK), the “inhibition of PK at room temperature” value is “did not show inhibition”.
